The values below are quoted from earlier work in US5380533A, “Gastroresistant pharmaceutical formulations for oral administration containing bile acids” (Alfa Wassermann S.p.A., priority 1991, dated 1995).

≈ marks a conversion by molar mass, not a printed value.

For series [1] the following is noted: free bile acid.
For series [2] the following is noted: intestinal pH below 8.4; intestinal bacterial flora.
The conditions of series [3]: pH units.
For series [4] the following is noted: after having crossed unabsorbed and undissolved the stomach.

Regarding `C[C@H](CCC(=O)O)[C@H]1CC[C@H]2[C@@H]3[C@@H](O)C[C@@H]4C[C@H](O)CC[C@]4(C)[C@H]3CC[C@]12C` [ursodeoxycholic acid], the water solubility in series [1] was 53 µM (≈ 20.8 µg/mL). The “fate of a portion at lower values of intestinal pH” value in series [2] is “is not absorbed and undergoes a biotransformation to lithocholic acid”. In addition, the “pH at which complete solubilization takes place” value in series [3] is 8.47. Also, the “dissolution in the intestine” value in series [4] was “dissolve very slowly in the intestine”.
